According to patent US9084813B2, “Agents that reduce neuronal overexcitation” (The J. David Gladstone Institutes, priority 2007, dated 2015):

Legend:
mice [1] = assay: Excitotoxicity assessment: PTZ-induced seizures; format: in vivo, mouse; conditions: single i.p. injection 40 mg/kg
Procedure: (§1) Drugs were dissolved in PBS and delivered by intraperitoneal injection. Pentylenetetrazole (PTZ, Sigma, St. Louis, Mo.) was used at a concentration of 5 mg/ml and a dose of 40 mg/kg. Kainate (Tocris, Ellisville, Mo.) was used at a concentration of 2 mg/ml and doses ranging from 20-40 mg/kg. For mice given PTZ, each mouse was placed in a cage and observed for 20 min after administration, with video recording. An investigator blinded to genotype analyzed the videotapes to quantify the time course and severity of seizures according to published scales (9, 10). Seizures severity scores were: 0=normal behavior; 1=immobility; 2=generalized spasm, tremble, or twitch; 3=tail extension; 4=forelimb clonus; 5=generalized clonic activity; 6=bouncing or running seizures; 7=full tonic extension; 8=death. For mice given KA, each mouse was placed in a cage and observed for 3 hours after administration. An investigator blinded to genotype quantified the time course and severity of seizures according to published scales (11); the percentage of mice attaining stage 6 (generalized tonic-clonic seizures) is presented.
A value of P<0.05 was considered significant. Error bars represent standard error of the mean. Survival data (FIG. 2E) was analyzed with Kaplan-Meier statistics and post-hoc log rank tests. Fisher's exact test was used to analyze occurrence of fatal status epilepticus after PTZ injection. Logistic regression was used to generate and compare dose-response curves for the proportion of mice seizing after KA administration (FIG. 4D). For other experiments, genotype differences were analyzed by ANOVA (repeated measures where indicated), using the Tukey test for post-hoc comparisons.

mice [2] = assay: Excitotoxicity assessment: kainate-induced seizures; format: in vivo, mouse; conditions: Tau^+/+ mice, single i.p. injection, 20-40 mg/kg, age 2-5 months
Procedure: as §1
A value of P<0.05 was considered significant. […] Survival data (FIG. 2E) was analyzed with Kaplan-Meier statistics and post-hoc log rank tests. […] For other experiments, genotype differences were analyzed by ANOVA (repeated measures where indicated), using the Tukey test for post-hoc comparisons.

C1CCc2nnnn2CC1 [PTZ, Pentylenetetrazole]
mice suffering fatal status epilepticus (mice [1]; hAPP/Tau^+/+ mice, age 4-7 months): 20% | death after PTZ (mice [1]; hAPP/Tau^+/− and hAPP/Tau^−/− mice): no hAPP/Tau^+/− or hAPP/Tau^−/− mice died | lethality of the dose (mice [1]; mice without hAPP): non-lethal

C=C(C)[C@H]1CN[C@H](C(=O)O)[C@H]1CC(=O)O [kainate, Kainate]
induction of generalized tonic-clonic seizures (mice [2]): dose-dependently induced seizures
